Among the data in ChEMBL document CHEMBL5625248, “Identification of unique indolylcyanoethylenyl sulfonylanilines as novel structural scaffolds of potential antibacterial agents” (Eur J Med Chem, 2023) are MIC values, retold here.

What all share (format): functional
The subject of assay [1] is Staphylococcus aureus. The assay is described as follows: Antibacterial activity against methicilin-resistant Staphylococcus aureus N315 assessed as inhibition of bacterial growth incubated for 18 hrs by two fold broth microdilution assay. On the technique in general: Dilution methods test growth across graded concentrations, often in twofold steps.
Assay [2] concerns Klebsiella pneumoniae. The assay is described as follows: Antibacterial activity against Klebsiella pneumoniae assessed as inhibition of bacterial growth incubated for 18 hrs by two fold broth microdilution assay.
Assay [3] deals with Staphylococcus aureus. The assay is described as follows: Antibacterial activity against Staphylococcus aureus assessed as inhibition of bacterial growth incubated for 18 hrs by two fold broth microdilution assay.
Assay [4] has as its system Acinetobacter baumannii. The assay is described as follows: Antibacterial activity against Acinetobacter baumannii assessed as inhibition of bacterial growth incubated for 18 hrs by two fold broth microdilution assay.
Assay [5] has as its system Escherichia coli. The assay can be described thus: Antibacterial activity against Escherichia coli assessed as inhibition of bacterial growth incubated for 18 hrs by two fold broth microdilution assay.
Assay [6] has as its system Enterococcus faecalis. The assay can be described thus: Antibacterial activity against Enterococcus faecalis assessed as inhibition of bacterial growth incubated for 18 hrs by two fold broth microdilution assay.
For assay [7], the system named is Staphylococcus aureus. The assay can be described thus: Antibacterial activity against Staphylococcus aureus ATCC 29213 assessed as inhibition of bacterial growth incubated for 18 hrs by two fold broth microdilution assay.
Assay [8] relates to Pseudomonas aeruginosa. The assay is described as follows: Antibacterial activity against Pseudomonas aeruginosa assessed as inhibition of bacterial growth incubated for 18 hrs by two fold broth microdilution assay.
Assay [9] has as its system Escherichia coli. The assay can be described thus: Antibacterial activity against Escherichia coli ATCC 25922 assessed as inhibition of bacterial growth incubated for 18 hrs by two fold broth microdilution assay.
Assay [10] concerns Staphylococcus aureus. The assay can be described thus: Antibacterial activity against Staphylococcus aureus ATCC 25923 assessed as inhibition of bacterial growth incubated for 18 hrs by two fold broth microdilution assay.
Assay [11] has as its system Pseudomonas aeruginosa. The assay can be described thus: Antibacterial activity against Pseudomonas aeruginosa ATCC 27853 assessed as inhibition of bacterial growth incubated for 18 hrs by two fold broth microdilution assay.

What is called MIC is the lowest concentration that inhibits growth of the organism.

In brackets after ≈: the same amount, converted by molar mass.

For the compound `CCN(CC)C(=O)Cn1cc(/C=C(\C#N)S(=O)(=O)c2ccc(NC(C)=O)cc2)c2ccccc21`, the minimal inhibitory concentration (MIC) was determined as 128 µg/mL (≈ 267 µM) in assay [1]; 64 µg/mL (≈ 134 µM) in assay [2]; 256 µg/mL (≈ 535 µM) in assay [3]; 128 µg/mL (≈ 267 µM) in assay [4]; 32 µg/mL (≈ 66.9 µM) in assay [5]; 128 µg/mL (≈ 267 µM) in assay [6]. The MIC in [7] was 2 µg/mL (≈ 4.18 µM); in assay [8], 32 µg/mL (≈ 66.9 µM); in assay [9] it was 128 µg/mL (≈ 267 µM); in assay [10] it was 8 µg/mL (≈ 16.7 µM); in [11], 256 µg/mL (≈ 535 µM).

`CCn1cc(C(=O)O)c(=O)c2cc(F)c(N3CCNCC3)cc21` [NORFLOXACIN]: the MIC in assay [1] came to 8 µg/mL (≈ 25.1 µM); in assay [2], 2 µg/mL (≈ 6.26 µM); in [3] it was 2 µg/mL (≈ 6.26 µM); in assay [4], 4 µg/mL (≈ 12.5 µM); in assay [5], 4 µg/mL (≈ 12.5 µM); in [6], 4 µg/mL (≈ 12.5 µM). The minimal inhibitory concentration (MIC) in assay [7] stood at 1 µg/mL (≈ 3.13 µM); in assay [8], 2 µg/mL (≈ 6.26 µM); in [9], 4 µg/mL (≈ 12.5 µM); in assay [10], 2 µg/mL (≈ 6.26 µM); in [11], 4 µg/mL (≈ 12.5 µM).

For the compound `N#C/C(=C\c1cn(CC2CCCCC2)c2ccccc12)S(=O)(=O)c1ccc(N)cc1`, the MIC in [1] was determined as 1 µg/mL (≈ 2.38 µM); in assay [2], 4 µg/mL (≈ 9.53 µM); in assay [3], 16 µg/mL (≈ 38.1 µM); in [4] it was 32 µg/mL (≈ 76.3 µM); in assay [5], 4 µg/mL (≈ 9.53 µM); in assay [6] it was 8 µg/mL (≈ 19.1 µM). Moreover, the minimal inhibitory concentration (MIC) came out at 2 µg/mL (≈ 4.77 µM) in assay [7]; 4 µg/mL (≈ 9.53 µM) in assay [8]; 2 µg/mL (≈ 4.77 µM) in assay [9]; 2 µg/mL (≈ 4.77 µM) in assay [10]; 2 µg/mL (≈ 4.77 µM) in [11].

For the compound `CC(=O)Nc1ccc(S(=O)(=O)/C(C#N)=C/c2cn(Cc3ccc(Cl)c(Cl)c3)c3ccccc23)cc1`, the MIC in [1] came out at 256 µg/mL (≈ 488 µM); in assay [2] it was 64 µg/mL (≈ 122 µM); in assay [3] it was 128 µg/mL (≈ 244 µM); in assay [4] it was 32 µg/mL (≈ 61 µM); in [5], 128 µg/mL (≈ 244 µM); in assay [6], 128 µg/mL (≈ 244 µM). Also, the minimal inhibitory concentration (MIC) in [7] turned out to be 4 µg/mL (≈ 7.63 µM); in [8], 128 µg/mL (≈ 244 µM); in assay [9], 256 µg/mL (≈ 488 µM); in assay [10], 32 µg/mL (≈ 61 µM); in assay [11] it was 16 µg/mL (≈ 30.5 µM).

Consider `CC(=O)Nc1ccc(S(=O)(=O)/C(C#N)=C/c2c[nH]c3cc(Br)ccc23)cc1`, for which the minimal inhibitory concentration (MIC) in assay [1] came to 64 µg/mL (≈ 144 µM); in [2], 4 µg/mL (≈ 9 µM); in [3] it was 32 µg/mL (≈ 72 µM); in assay [4], 16 µg/mL (≈ 36 µM); in [5], 128 µg/mL (≈ 288 µM); in [6], 32 µg/mL (≈ 72 µM). Also, the minimum inhibitory concentration (MIC) turned out to be 32 µg/mL (≈ 72 µM) in assay [7]; 64 µg/mL (≈ 144 µM) in assay [8]; 64 µg/mL (≈ 144 µM) in assay [9]; 128 µg/mL (≈ 288 µM) in [10]; 16 µg/mL (≈ 36 µM) in assay [11].

For the compound `C=CCn1cc(/C=C(\C#N)S(=O)(=O)c2ccc(N)cc2)c2ccccc21`, the minimal inhibitory concentration (MIC) in assay [1] is 32 µg/mL (≈ 88 µM); in assay [2], 8 µg/mL (≈ 22 µM); in assay [3], 64 µg/mL (≈ 176 µM); in assay [4], 64 µg/mL (≈ 176 µM); in assay [5] it was 8 µg/mL (≈ 22 µM); in assay [6] it was 8 µg/mL (≈ 22 µM). Moreover, the minimum inhibitory concentration (MIC) in [7] was 4 µg/mL (≈ 11 µM); in assay [8] it was 64 µg/mL (≈ 176 µM); in [9] it was 16 µg/mL (≈ 44 µM); in [10] it was 4 µg/mL (≈ 11 µM); in assay [11], 8 µg/mL (≈ 22 µM).

Regarding `CC(=O)Nc1ccc(S(=O)(=O)/C(C#N)=C/c2cn(CCN3CCOCC3)c3ccccc23)cc1`, the minimum inhibitory concentration (MIC) in assay [1] came out at 32 µg/mL (≈ 66.9 µM); in [2] it was 256 µg/mL (≈ 535 µM); in assay [3], 128 µg/mL (≈ 267 µM); in assay [4], 32 µg/mL (≈ 66.9 µM); in [5], 64 µg/mL (≈ 134 µM); in assay [6] it was 256 µg/mL (≈ 535 µM). The MIC in assay [7] was 32 µg/mL (≈ 66.9 µM); in assay [8] it was 4 µg/mL (≈ 8.36 µM); in assay [9] it was 0.5 µg/mL (≈ 1.04 µM); in assay [10] it was 32 µg/mL (≈ 66.9 µM); in [11] it was 8 µg/mL (≈ 16.7 µM).

Consider `CC(=O)Nc1ccc(S(=O)(=O)/C(C#N)=C/c2cn(Cc3cccc(F)c3)c3ccccc23)cc1`, for which the minimum inhibitory concentration (MIC) in assay [1] came to 256 µg/mL (≈ 541 µM); in assay [2], 256 µg/mL (≈ 541 µM); in assay [3], 64 µg/mL (≈ 135 µM); in [4], 16 µg/mL (≈ 33.8 µM); in [5], 128 µg/mL (≈ 270 µM); in assay [6] it was 32 µg/mL (≈ 67.6 µM). The MIC in assay [7] turned out to be 16 µg/mL (≈ 33.8 µM); in [8] it was 64 µg/mL (≈ 135 µM); in assay [9], 64 µg/mL (≈ 135 µM); in assay [10], 16 µg/mL (≈ 33.8 µM); in assay [11], 16 µg/mL (≈ 33.8 µM).
